From ChEMBL document CHEMBL4145551, “Mitochondria-targeting indolizino[3,2-c]quinolines as novel class of photosensitizers for photodynamic anticancer activity” (Eur J Med Chem, 2018)
The source made the active and inactive calls. The rule behind the calls is not given here.

Key:
[1] = Induction of singlet oxygen production assessed as photodegradation of DPBF by measuring quantum yield after irradiation with 356 nanometer light by UV-Visible spectroscopic analysis; type: functional
A549 [2] = test: Photocytotoxicity against human A549 cells assessed as reduction in cell viability preincubated for 1 hr followed blue LED light irradiation for 5 mins and measured after 24 hrs by MTT assay; type: functional, cell-based; conditions: for IC50: A549, light or radiation study
A549 [3] = test: Photocytotoxicity against human A549 cells assessed as reduction in cell viability preincubated for 1 hr followed blue LED light irradiation for 10 mins and measured after 24 hrs by MTT assay; type: functional, cell-based; conditions: for IC50: A549, light or radiation study
MCF7 [4] = test: Photocytotoxicity against human MCF7 cells assessed as reduction in cell viability preincubated for 1 hr followed blue LED light irradiation for 5 mins and measured after 24 hrs by MTT assay; type: functional, cell-based; conditions: for IC50: MCF7, light or radiation study
MCF7 [5] = test: Photocytotoxicity against human MCF7 cells assessed as reduction in cell viability preincubated for 1 hr followed blue LED light irradiation for 10 mins and measured after 24 hrs by MTT assay; type: functional, cell-based; conditions: for IC50: MCF7, light or radiation study
HeLa [6] = test: Photocytotoxicity against human HeLa cells assessed as reduction in cell viability preincubated for 1 hr followed blue LED light irradiation for 5 mins and measured after 24 hrs by MTT assay; type: functional, cell-based; conditions: for IC50: light or radiation study
HeLa [7] = test: Photocytotoxicity against human HeLa cells assessed as reduction in cell viability preincubated for 1 hr followed blue LED light irradiation for 10 mins and measured after 24 hrs by MTT assay; type: functional, cell-based; conditions: for IC50: light or radiation study
[8] = Dark toxicity in human A549 cells assessed as reduction in cell viability up to 10 uM measured after 24 hrs by MTT assay; type: cell-based; conditions: a549, 24 h
[9] = Dark toxicity in human MCF7 cells assessed as reduction in cell viability up to 10 uM measured after 24 hrs by MTT assay; type: cell-based; conditions: mcf7, 24 h
[10] = Dark toxicity in human HeLa cells assessed as reduction in cell viability up to 10 uM measured after 24 hrs by MTT assay; type: cell-based
DNA [11] = test: Induction of Escherichia coli pBR322 DNA cleavage at 20 uM after 30 mins under dark condition by agarose gel electrophoresis method; type: nucleic-acid assay; conditions: 0.5 h
DNA [12] = test: Induction of Escherichia coli pBR322 DNA cleavage irradiated with blue LED light after 30 mins by agarose gel electrophoresis method; type: nucleic-acid assay
DNA [13] = test: Induction of Escherichia coli pBR322 DNA cleavage at 20 uM irradiated with blue LED light after 30 mins in presence of H2O2 scavenger KI by agarose gel electrophoresis method; type: nucleic-acid assay
DNA [14] = test: Induction of Escherichia coli pBR322 DNA cleavage at 20 uM irradiated with blue LED light after 30 mins in presence of hydroxyl radical scavenger mannitol by agarose gel electrophoresis method; type: nucleic-acid assay
DNA [15] = test: Induction of Escherichia coli pBR322 DNA cleavage at 20 uM irradiated with blue LED light after 30 mins in presence of singlet oxygen scavenger sodium azide by agarose gel electrophoresis method; type: nucleic-acid assay
HeLa [16] = test: Induction of ROS generation in human HeLa cells preincubated for 1 hr followed by blue LED light irradiation for 15 mins by DHE staining based HCS analysis; type: functional, cell-based
HeLa [17] = test: Photocytotoxicity against human HeLa cells assessed as reduction in cell viability at 2 uM preincubated for 1 hr followed blue LED light irradiation for 5 mins and measured after 24 hrs in presence of singlet oxygen scavenger histidine by MTT assay; type: functional, cell-based
[18] = Drug uptake in human HeLa cell mitochondria at 10 uM after 1 hr by mitotracker red staining based confocal laser scanning microscopic method; type: ADME
HeLa [19] = test: Photocytotoxicity against human HeLa cells assessed as induction of mitochondrial membrane potential depolarization at 10 uM preincubated for 1 hr followed by blue LED light irradiation for 5 mins by TMRE staining based confocal microscopic method; type: functional, cell-based
MCF7 [20] = test: Photocytotoxicity against human MCF7 cells assessed as induction of mitochondrial membrane potential depolarization at 10 uM preincubated for 1 hr followed by blue LED light irradiation for 5 mins by TMRE staining based confocal microscopic method; type: functional, cell-based
HeLa [21] = test: Photocytotoxicity against human HeLa cells assessed as cell membrane blebbing at 10 uM preincubated for 1 hr followed by blue LED light irradiation for 5 mins by differential interference contrast imaging analysis; type: functional, cell-based
HeLa [22] = test: Photocytotoxicity against human HeLa cells assessed as plasma membrane blebbing up to 10 uM preincubated for 1 hr followed by blue LED light irradiation for 5 mins and measured after 13 hrs by Hoechst 33258 staining based fluorescence microscopic method; type: functional, cell-based
HeLa [23] = test: Photocytotoxicity against human HeLa cells assessed as chromatin condensation up to 10 uM preincubated for 1 hr followed by blue LED light irradiation for 5 mins and measured after 13 hrs by Hoechst 33258 staining based fluorescence microscopic method; type: functional, cell-based
HeLa [24] = test: Photocytotoxicity against human HeLa cells assessed as DNA fragmentation up to 10 uM preincubated for 1 hr followed by blue LED light irradiation for 5 mins and measured after 13 hrs by Hoechst 33258 staining based fluorescence microscopic method; type: functional, cell-based
HeLa [25] = test: Photocytotoxicity against human HeLa cells assessed as cellular shrinkage up to 10 uM preincubated for 1 hr followed by blue LED light irradiation for 5 mins and measured after 13 hrs by Hoechst 33258 staining based fluorescence microscopic method; type: functional, cell-based
HeLa [26] = test: Photocytotoxicity against human HeLa cells assessed as cell death at 0.5 uM preincubated for 1 hr followed blue LED light irradiation for 5 mins and measured after 24 hrs by MTT assay relative to control; type: functional
HeLa [27] = test: Photocytotoxicity against human HeLa cells assessed as morphological changes at 5 uM preincubated for 1 hr followed by blue LED light irradiation for 10 mins and measured after 2.5 hrs by holotomographic method; type: functional, cell-based

| Compound | Activity [1] | Activity (A549 [2]) | IC50 (A549 [2]) [nM] | Activity (A549 [3]) | IC50 (A549 [3]) [nM] | Activity (MCF7 [4]) | IC50 (MCF7 [4]) [nM] | Activity (MCF7 [5]) | IC50 (MCF7 [5]) [nM] | Activity (HeLa [6]) | IC50 (HeLa [6]) [nM] | Activity (HeLa [7]) | IC50 (HeLa [7]) [nM] | Activity [8] | Activity [9] | Activity [10] | Activity (DNA [11]) | Activity (HeLa [16]) | Activity (HeLa [22]) | Activity (HeLa [23]) | also measured |
| --- | --- | --- | --- | --- | --- | --- | --- | --- | --- | --- | --- | --- | --- | --- | --- | --- | --- | --- | --- | --- | --- |
| Cc1cccn2c1cc1c3ccccc3nc(-c3cccs3)c12 | 0.42 | Dose-dependent effect | 3380 | Dose-dependent effect | 1990 | Dose-dependent effect | 2680 | Dose-dependent effect | 1390 | Dose-dependent effect | 1170 | Dose-dependent effect | 550 | Non-Toxic | Non-Toxic | Non-Toxic | Non-Toxic | Dose-dependent effect | Active | Active | Activity (DNA [12]): Dose-dependent effect; Activity (DNA [13]): inactive; Activity (DNA [14]): Active; Activity (DNA [15]): inactive; Activity (HeLa [17]): inactive; Drug uptake [18]: Active; Activity (HeLa [19]): Active; Activity (MCF7 [20]): Active; Activity (HeLa [21]): Active; Activity (HeLa [24]): Active; Activity (HeLa [25]): Active |
| c1csc(-c2nc3ccccc3c3cc4ccccn4c23)c1 | 0.4 | Dose-dependent effect | 4150 | Dose-dependent effect | 1990 | Dose-dependent effect | 3460 | Dose-dependent effect | 1550 | Dose-dependent effect | 1450 | Dose-dependent effect | 630 | Non-Toxic | Non-Toxic | Non-Toxic | Non-Toxic | Dose-dependent effect | Active | Active | Activity (DNA [12]): Dose-dependent effect; Activity (HeLa [17]): inactive; Activity (HeLa [24]): Active; Activity (HeLa [25]): Active |
| Cc1cccn2c1cc1c3ccccc3nc(-c3ccc(Cl)o3)c12 | 0.38 | Dose-dependent effect | 1430 | Dose-dependent effect | 1130 | Dose-dependent effect | 930 | Dose-dependent effect | 620 | Dose-dependent effect | 3510 | Dose-dependent effect | 2070 | Non-Toxic | Non-Toxic | Non-Toxic | Non-Toxic | Dose-dependent effect | Active | Active | Activity (HeLa [24]): Active; Activity (HeLa [25]): Active |
| Clc1ccc(-c2nc3ccccc3c3cc4ccccn4c23)s1 | 0.47 | Dose-dependent effect | 1330 | Dose-dependent effect | 1030 | Dose-dependent effect | 1680 | Dose-dependent effect | 1040 | Dose-dependent effect | 490 | Dose-dependent effect | 410 | Non-Toxic | Non-Toxic | Non-Toxic | Non-Toxic | Dose-dependent effect | Active | Active | Activity (HeLa [26]): >50%; Activity (HeLa [24]): Active; Activity (HeLa [25]): Active; Activity (HeLa [27]): Active |
| Brc1ccc2cc3c4ccccc4nc(-c4ccco4)c3n2c1 | 0.6 | Dose-dependent effect | 2160 | Dose-dependent effect | 1590 | Dose-dependent effect | 1330 | Dose-dependent effect | 830 | Dose-dependent effect | 1140 | Dose-dependent effect | 810 | Toxic | Toxic | Toxic | Non-Toxic | Dose-dependent effect | Active | Active | Activity (DNA [12]): Dose-dependent effect; Activity (HeLa [24]): Active; Activity (HeLa [25]): Active |
